# Results from patent US3988461A, “Pharmaceutical composition for the treatment of Parkinson's disease” (priority 1974, dated 1976).
# Structures can show the parent of a compound that is named as a salt.
# What was measured:
# [1] = tested on: Perphenazine-induced catalepsy; assay: Antagonism of Perphenazine-induced Catalepsy; format: in vivo, white rats
# Description: The synergistic increase in the antiparkinson effect was investigated by studying the inhibition of Oxotremorine-induced tremor and the antagonism of Perphenazine-induced catalepsy.
# The tests were performed on white rats of both sexes, each weighing 150 to 200 g. The animals were treated orally with varying amounts of Cyproheptadine hydrochloride or L-Dopa, respectively, and 30 minutes after the introduction of the active agents the animals were treated with a standard dosage of Perphenazine [2-chloro-10-(3-/4-(2-hydroxy-ethyl)-1-piperazinyl/-propyl)-phenothiazine]. The percentage of catalepsy inhibition was examined as a function of the time.
# The interaction of the active agents was studied on white rats, according to the method described above. Cyproheptadine hydrochloride was administered in oral dosages of 2 or 4 mg./kg., respectively. 30 minutes after the introduction of Cyproheptadine hydrochloride the animals were treated with varying amounts of L-Dopa, and after an additional period of 30 minutes the animals were treated with a standard dosage of Perphenazine.
# [2] = tested on: Oxotremorine-induced tremor; assay: Inhibition of Oxotremorine-induced Tremor; format: in vivo, mice; settings: for ED50 found: 30 min; for ED50 calculated: expected from isobole
# Description: The tests were performed on mice of both sexes, each weighing 20 to 30 g. The groups consisted of 20 animals each. The test animals were treated orally with varying amounts of Cyproheptadine hydrochloride or L-Dopa, respectively.
# 30 minutes after the administration of L-Dopa, varying amounts of Cyproheptadine hydrochloride were introduced, and after further 30 minutes the animals were treated with a standard dosage of Oxotremorine.
# In a further series of tests the animals were treated with 1 mg./kg. of Cyproheptadine hydrochloride. 30 minutes after the administration of Cyproheptadine hydrochloride, L-Dopa was introduced in varying amounts, and after a further period of 30 minutes the animals were treated with a standard dosage of Oxotremorine.
# The expected ED50 values were determined by constructing an isobole, and the expected values were compared to the observed ones.
# mice = assay: Toxicity Tests (oral, individual and joint toxicity)
# Description: (§1) The toxicities of the individual components were determined separately on mice. The active agents were suspended in water containing Tween 80, and the suspension was administered orally to the animals in a dosage of 20 ml./kg. The animals were kept under observation for 72 hours. The poisoned animals perished within 48 hours.
# (§2) The joint toxicity of the individual active agents was determined as follows:
# (§3) a. The animals were treated with 1 g/kg. of L-Dopa. 1 hour after the administration of L-Dopa, the animals were treated with varying amounts of Cyproheptadine hydrochloride.
# (§4) b. The animals were treated with 2 g./kg. of L-Dopa, and varying amounts of Cyproheptadine hydrochloride were administered subsequently.
# (§5) c. The animals were treated with 3 g./kg. of L-Dopa, and subsequently Cyproheptadine hydrochloride was administered in varying amounts.
# (§6) In order to evaluate the changes in toxicity, the expected toxicities of the compositions listed below were determined by constructing an isobole, and the calculated data were compared to the observed ones.
# [3] = as above; settings: mouse, in vivo, po; for mortality at 72 h: Perishment, %
# Description: as §1, §2, §3, §4, §5, §6
# hexobarbital narcosis = assay: Examination of Sedative Effects, Hexobarbital Narcosis Test; settings: for Positive animals/treated animals: positive = sleep higher by at least 150% than control
# Description: The side effects of the individual active agents as well as those of the compositions were examined as follows:
# Examination of Sedative Effects on Mice, According to the Hexobarbital Narcosis Test
# The compounds to be tested were suspended in water containing Tween 80, and 20 ml./kg. dosages of the obtained suspensions were administered orally to the test animals.
# motility = assay: Examination of Locomotive Stimulating Effect on Motility Test
# Description: b. Examination of Locomotive Stimulating Effect on Motility Test
# The tests were performed on white mice. An intraperitoneal dosage of 500 mg./kg. of L-Dopa was administered 30 minutes after the pre-treatment with Cyproheptadine hydrochloride.
# [4] = Cyproheptadine hydrochloride 10 mg./kg. oral
# [5] = Cyproheptadine hydrochloride 20 mg./kg. oral
# [6] = Table 5, Cyproheptadine HCl 2 mg./kg. alone
# [7] = Table 5, Cyproheptadine HCl 4 mg./kg. alone
# [8] = Cyproheptadine hydrochloride after 200 mg./kg. L-Dopa
# [9] = Cyproheptadine HCl 2.5 mg./kg. p.o. + physiological saline i.p.
# [10] = L-Dopa after 1 mg./kg. Cyproheptadine HCl
# [11] = physiological saline p.o. + L-Dopa 500 mg./kg. i.p.
smiles,measurement,setting,value
CN1CCC(=C2c3ccccc3C=Cc3ccccc32)CC1 [Cyproheptadine HCl],Percentage inhibition after 0.5 hours,[1]; [4],89%
same,Percentage inhibition after 1 hours,[1]; [4],72%
same,Percentage inhibition after 2 hours,[1]; [4],61%
same,Percentage inhibition after 3 hours,[1]; [4],57%
same,Percentage inhibition after 0.5 hours,[1]; [5],76%
same,Percentage inhibition after 1 hours,[1]; [5],77%
same,Percentage inhibition after 2 hours,[1]; [5],73%
same,Percentage inhibition after 3 hours,[1]; [5],59%
same,Percentage inhibition after 0.5 hours,[1]; [6],37%
same,Percentage inhibition after 1 hours,[1]; [6],8%
same,Percentage inhibition after 2 hours,[1]; [6],14%
same,Percentage inhibition after 3 hours,[1]; [6],8%
same,Percentage inhibition after 0.5 hours,[1]; [7],20%
same,Percentage inhibition after 1 hours,[1]; [7],10%
same,Percentage inhibition after 2 hours,[1]; [7],14%
same,Percentage inhibition after 3 hours,[1]; [7],18%
same,"Inhibition, %",[2]; 0.2 mg./kg. after 200 mg./kg. L-Dopa pre-treatment,0%
same,"Inhibition, %",[2]; 0.4 mg./kg. after 200 mg./kg. L-Dopa pre-treatment,20%
same,"Inhibition, %",[2]; 0.8 mg./kg. after 200 mg./kg. L-Dopa pre-treatment,50%
same,"Inhibition, %",[2]; 1.6 mg./kg. after 200 mg./kg. L-Dopa pre-treatment,90%
same,Difference (percentage deviation of ED50 calculated vs. found),[2]; [8],+107%
same,ED50 found,[2]; [8],0.7 mg/kg
same,ED50,"[2]; Mus musculus, 0.5 h, Cyproheptadine hydrochloride alone, oral, 30 min before Oxotremorine",3 mg/kg
same,ED50 calculated,[2]; [8],1.45 mg/kg
same,Perished animals/treated animals,"mice; 40 mg./kg., after 3 g./kg. L-Dopa",1/20
same,Perished animals/treated animals,"mice; 60 mg./kg., after 2 g./kg. L-Dopa",0/20
same,Perished animals/treated animals,"mice; 60 mg./kg., after 3 g./kg. L-Dopa",5/20
same,Perished animals/treated animals,"mice; 90 mg./kg., 1 hour after 1 g/kg. L-Dopa",2/20
same,Perished animals/treated animals,"mice; 90 mg./kg., after 2 g./kg. L-Dopa",2/20
same,Perished animals/treated animals,"mice; 90 mg./kg., after 3 g./kg. L-Dopa",9/20
same,Perished animals/treated animals,"mice; 200 mg./kg., 1 hour after 1 g/kg. L-Dopa",14/20
same,Perished animals/treated animals,"mice; 200 mg./kg., after 2 g./kg. L-Dopa",17/20
same,Perished animals/treated animals,"mice; 200 mg./kg., after 3 g./kg. L-Dopa",15/20
same,Perished animals/treated animals,"mice; 300 mg./kg., 1 hour after 1 g/kg. L-Dopa",19/20
same,LD50 at 72 h,[3],135 mg/kg
same,mortality at 72 h,"[3]; 40 mg/kg, 40 mg./kg., after 3 g./kg. L-Dopa",5%
same,mortality at 72 h,"[3]; 60 mg/kg, 60 mg./kg., after 2 g./kg. L-Dopa",0%
same,mortality at 72 h,"[3]; 60 mg/kg, 60 mg./kg., after 3 g./kg. L-Dopa",25%
same,mortality at 72 h,"[3]; 90 mg/kg, 90 mg./kg., 1 hour after 1 g/kg. L-Dopa",10%
same,mortality at 72 h,"[3]; 90 mg/kg, 90 mg./kg., after 2 g./kg. L-Dopa",10%
same,mortality at 72 h,"[3]; 90 mg/kg, 90 mg./kg., after 3 g./kg. L-Dopa",45%
same,mortality at 72 h,"[3]; 200 mg/kg, 200 mg./kg., 1 hour after 1 g/kg. L-Dopa",70%
same,mortality at 72 h,"[3]; 200 mg/kg, 200 mg./kg., after 2 g./kg. L-Dopa",85%
same,mortality at 72 h,"[3]; 200 mg/kg, 200 mg./kg., after 3 g./kg. L-Dopa",75%
same,mortality at 72 h,"[3]; 300 mg/kg, 300 mg./kg., 1 hour after 1 g/kg. L-Dopa",95%
same,% positive animals,hexobarbital narcosis; 2.5 mg./kg. oral,33%
same,Positive animals/treated animals,hexobarbital narcosis; 2.5 mg./kg. oral,6/18
same,% positive animals,hexobarbital narcosis; 5.0 mg./kg. oral,66%
same,Positive animals/treated animals,hexobarbital narcosis; 5.0 mg./kg. oral,4/6
same,% positive animals,hexobarbital narcosis; 10.0 mg./kg. oral,83%
same,Positive animals/treated animals,hexobarbital narcosis; 10.0 mg./kg. oral,5/6
same,Average No. of light interruptions,motility; [9],145
same,Change %,motility; [9],-36%
same,influence on locomotive stimulating effect of L-Dopa (in words),"motility; in the tested dosages, conclusion from Table 9",does not influence the locomotive stimulating effect of L-Dopa
"N[C@@H](Cc1ccc(O)c(O)c1)C(=O)O [L-Dopa, L-3,4-dihydroxyphenylalanine]",Percentage inhibition after 0.5 hours,[1]; L-Dopa 100 mg./kg. oral,2%
same,Percentage inhibition after 1 hours,[1]; L-Dopa 100 mg./kg. oral,15%
same,Percentage inhibition after 2 hours,[1]; L-Dopa 100 mg./kg. oral,18%
same,Percentage inhibition after 3 hours,[1]; L-Dopa 100 mg./kg. oral,18%
same,Percentage inhibition after 4 hours,[1]; L-Dopa 100 mg./kg. oral,10%
same,Percentage inhibition after 0.5 hours,[1]; L-Dopa 200 mg./kg. oral,0%
same,Percentage inhibition after 1 hours,[1]; L-Dopa 200 mg./kg. oral,23%
same,Percentage inhibition after 2 hours,[1]; L-Dopa 200 mg./kg. oral,23%
same,Percentage inhibition after 3 hours,[1]; L-Dopa 200 mg./kg. oral,3%
same,Percentage inhibition after 4 hours,[1]; L-Dopa 200 mg./kg. oral,5%
same,Percentage inhibition after 0.5 hours,[1]; L-Dopa 400 mg./kg. oral,27%
same,Percentage inhibition after 1 hours,[1]; L-Dopa 400 mg./kg. oral,33%
same,Percentage inhibition after 2 hours,[1]; L-Dopa 400 mg./kg. oral,32%
same,Percentage inhibition after 3 hours,[1]; L-Dopa 400 mg./kg. oral,20%
same,Percentage inhibition after 4 hours,[1]; L-Dopa 400 mg./kg. oral,10%
same,"Inhibition, %",[2]; L-Dopa 50 mg./kg. after 1 mg./kg. Cyproheptadine hydrochloride,15%
same,"Inhibition, %",[2]; L-Dopa 100 mg./kg. after 1 mg./kg. Cyproheptadine hydrochloride,52.5%
same,"Inhibition, %",[2]; L-Dopa 200 mg./kg. after 1 mg./kg. Cyproheptadine hydrochloride,67.5%
same,"Inhibition, %",[2]; L-Dopa 400 mg./kg. after 1 mg./kg. Cyproheptadine hydrochloride,85%
same,Difference (percentage deviation of ED50 calculated vs. found),[2]; [10],+117%
same,ED50 found,[2]; [10],120 mg/kg
same,ED50 calculated,[2]; [10],260 mg/kg
same,influence on toxicity of the other agent (in words),mice; pre-treatments with 1 and 2 g./kg. of L-dopa,hardly influence the toxicity of Cyproheptadine hydrochloride
same,LD50 at 72 h,[3],4200 mg/kg
same,% positive animals,hexobarbital narcosis; 520 mg./kg. oral,0%
same,% positive animals,hexobarbital narcosis; 800 mg./kg. oral,16.6%
same,% positive animals,hexobarbital narcosis; 1200 mg./kg. oral,83%
same,Average No. of light interruptions,motility; [11],465
same,Change %,motility; [11],+105%
